The values that follow come from US11325899B2, “Benzofurane and benzothiophene derivatives as PGE2 receptor modulators” (IDORSIA PHARMACEUTICALS LTD, priority 2017, dated 2022).

What all share (assay type): cell-based
The target of one test is T1, PTGER4 (EP4) (Homo sapiens, UniProt P35408).
T1 construct: host or cells: HEK 293 (PathHunter PTGER4 b-arrestin cell line)
Nature of the test: hEP4 b-arrestin assay (PathHunter HEK 293 PTGER4 b-arrestin cells). The settings on record: antagonistic activity, beta-arrestin assay; read-out: hEP4 b-arr IC50. The procedure, abridged: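 PathHunter HEK 293 cells expressing ProLink-tagged human EP4 and EA-β-arrestin 2, seeded 24 h before. Compounds (10 μM–2 nM or 1 μM–0.2 nM) preincubated 15 min at 37 °C, then 20 nM PGE2 (EC80) for 120 min at 37 °C. β-gal complementation luminescence read; IC50 from duplicate dose-response curves versus DMSO control.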

Another test addresses T2, PTGER2 (EP2) (Homo sapiens, UniProt P43116).
T2 construct: host or cells: HEK 293 (PathHunter PTGER2 b-arrestin cell line)
Nature of the test: hEP2 b-arrestin assay (PathHunter HEK 293 PTGER2 b-arrestin cells). The settings on record: antagonistic activity, beta-arrestin assay; read-out: hEP2 b-arr IC50. In a few lines: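 PathHunter HEK293 cells with ProLink-tagged EP2 and EA-β-arrestin 2 preincubated 15 min at 37 °C with compound (10 μM-2 nM or 1 μM-0.2 nM), then stimulated 120 min with 5 μM PGE2 (EC80). β-gal complementation read by chemiluminescence; IC50 from duplicate dose-response versus DMSO.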

In another test the target is T3, EP2 receptor (Homo sapiens, UniProt P43116).
T3 construct: SF295 glioblastoma cells express high endogenous EP2 and no EP4; host or cells: SF295 glioblastoma cells
T3 sequence (P43116 whole entry): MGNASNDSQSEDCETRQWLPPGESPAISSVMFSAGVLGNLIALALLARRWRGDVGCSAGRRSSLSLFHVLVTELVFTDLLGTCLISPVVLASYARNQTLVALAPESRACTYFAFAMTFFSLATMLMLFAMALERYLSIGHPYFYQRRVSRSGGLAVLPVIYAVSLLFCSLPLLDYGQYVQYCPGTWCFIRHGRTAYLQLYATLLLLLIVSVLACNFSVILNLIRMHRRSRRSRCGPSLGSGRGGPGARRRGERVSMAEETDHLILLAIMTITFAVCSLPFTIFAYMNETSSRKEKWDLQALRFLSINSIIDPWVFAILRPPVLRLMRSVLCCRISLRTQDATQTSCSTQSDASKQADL
Nature of the test: hEP2 cAMP assay (SF295 glioblastoma cells, HTRF cAMP, PGE2 stimulation). Particulars: antagonistic activity. The procedure, abridged:
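SF295 glioblastoma cells with endogenous EP2 and no EP4, in HBSS/HEPES/BSA with 2 mM IBMX, pre-incubated 45 min at room temperature with compound, then stimulated 30 min with 75 nM PGE2 (EC80). cAMP measured by HTRF; IC50 fitted from duplicate % cAMP versus DMSO control.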
(In general: Cyclic AMP is a second messenger, typically raised through Gs and lowered through Gi signalling.)

The IC50 is the midpoint of a concentration-inhibition curve.

T1 sequence (P35408 whole entry): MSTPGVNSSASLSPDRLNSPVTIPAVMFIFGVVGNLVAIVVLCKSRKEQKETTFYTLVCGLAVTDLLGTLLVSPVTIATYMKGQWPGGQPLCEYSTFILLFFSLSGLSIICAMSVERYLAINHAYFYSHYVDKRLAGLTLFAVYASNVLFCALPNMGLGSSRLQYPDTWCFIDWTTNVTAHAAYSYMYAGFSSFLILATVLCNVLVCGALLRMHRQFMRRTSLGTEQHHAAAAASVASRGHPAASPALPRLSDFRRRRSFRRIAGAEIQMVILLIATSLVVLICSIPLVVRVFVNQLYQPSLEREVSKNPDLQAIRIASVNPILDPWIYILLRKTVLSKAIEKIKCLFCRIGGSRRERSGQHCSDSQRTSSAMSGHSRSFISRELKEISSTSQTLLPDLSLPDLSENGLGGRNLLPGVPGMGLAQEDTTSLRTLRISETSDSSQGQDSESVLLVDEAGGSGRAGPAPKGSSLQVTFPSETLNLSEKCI
T2 sequence (P43116 whole entry): as the sequence (P43116 whole entry) above

For `CSc1cc(-c2cc(NCCc3c(C)sc4c(C)c(F)ccc34)ncn2)ccc1C(=O)O` [Example 21, 4-{6-[2-(6-Fluoro-2,7-dimethyl-benzo[b]thiophen-3-yl)-ethylamino]-pyrimidin-4-yl}-2-methylsulfanyl-benzoic acid], the IC50 worked out at 283 nM at PTGER4 (EP4), 4 nM at PTGER2 (EP2) and 24 nM against EP2 receptor.
Turning to `CCc1oc2c(C)cc(F)cc2c1CCNc1cc(-c2ccc(C(=O)O)c(SC)c2)ncn1` [Example 22, 4-{6-[2-(2-Ethyl-5-fluoro-7-methyl-benzofuran-3-yl)-ethylamino]-pyrimidin-4-yl}-2-methylsulfanyl-benzoic acid], the IC50 on PTGER4 (EP4) came to 493 nM; on PTGER2 (EP2) it was 101 nM; against EP2 receptor it was 172 nM.
The corresponding values for `CSc1cc(-c2cc(NCCc3c(C)sc4c(Cl)cc(F)cc34)ncn2)ccc1C(=O)O` [Example 23, 4-{6-[2-(7-Chloro-5-fluoro-2-methyl-benzo[b]thiophen-3-yl)-ethylamino]-pyrimidin-4-yl}-2-methylsulfanyl-benzoic acid] are 488 nM, 9 nM and 27 nM.
Turning to `CSc1cc(-c2cc(NCCc3c(C)sc4ccccc34)ncn2)ccc1C(=O)O` [Example 24, 4-{6-[2-(2-Methyl-benzo[b]thiophen-3-yl)-ethylamino]-pyrimidin-4-yl}-2-methylsulfanyl-benzoic acid], the IC50 turned out to be 3420 nM on PTGER4 (EP4), 3 nM on PTGER2 (EP2) and 4 nM on EP2 receptor.
Consider `CCOc1cc(-c2cc(NCCc3c(C)sc4c(C)ccc(F)c34)ncn2)sc1C(=O)O` [Example 25, 3-Ethoxy-5-{6-[2-(4-fluoro-2,7-dimethyl-benzo[b]thiophen-3-yl)-ethylamino]-pyrimidin-4-yl}-thiophene-2-carboxylic acid], for which the IC50 stood at 7 nM at PTGER4 (EP4), 2 nM at PTGER2 (EP2) and 8 nM at EP2 receptor.
The corresponding values for `CCOc1cc(-c2cc(NCCc3c(C)sc4c(OC)ccc(F)c34)ncn2)sc1C(=O)O` [Example 28, 3-Ethoxy-5-{6-[2-(4-fluoro-7-methoxy-2-methyl-benzo[b]thiophen-3-yl)-ethylamino]-pyrimidin-4-yl}-thiophene-2-carboxylic acid] are 5 nM, 2 nM and 11 nM.
In the same order, the values of `CCOc1cc(-c2cc(NCCc3c(C)sc4c(C)ccc(Cl)c34)ncn2)sc1C(=O)O` [Example 29, 5-{6-[2-(4-Chloro-2,7-dimethyl-benzo[b]thiophen-3-yl)-ethylamino]-pyrimidin-4-yl}-3-ethoxy-thiophene-2-carboxylic acid] are 25 nM, 14 nM and 14 nM.
The corresponding values for `CCOc1cc(-c2cc(NCCc3c(C)sc4c(OC)ccc(Cl)c34)ncn2)sc1C(=O)O` [Example 30, 5-{6-[2-(4-Chloro-7-methoxy-2-methyl-benzo[b]thiophen-3-yl)-ethylamino]-pyrimidin-4-yl}-3-ethoxy-thiophene-2-carboxylic acid] are 18 nM, 10 nM and 8 nM.
Turning to `CCOc1cc(-c2cc(NCCc3c(C)oc4c(OC)cc(F)c(F)c34)ncn2)sc1C(=O)O` [Example 31, 5-{6-[2-(4,5-Difluoro-7-methoxy-2-methyl-benzofuran-3-yl)-ethylamino]-pyrimidin-4-yl}-3-ethoxy-thiophene-2-carboxylic acid], the values for the IC50 at PTGER4 (EP4), at PTGER2 (EP2) and on EP2 receptor were 27 nM, 11 nM and 10 nM, respectively.
In the same order, the values of `CCOc1cc(-c2cc(NCCc3c(C)sc4c(C)cc(F)cc34)ncn2)sc1C(=O)O` [Example 32, 3-Ethoxy-5-{6-[2-(5-fluoro-2,7-dimethyl-benzo[b]thiophen-3-yl)-ethylamino]-pyrimidin-4-yl}-thiophene-2-carboxylic acid] are 16 nM, 2 nM and 2 nM.
In the same order, the values of `CCOc1cc(-c2cc(NCCc3csc4ccccc34)ncn2)sc1C(=O)O` [Example 33, 5-[6-(2-Benzo[b]thiophen-3-yl-ethylamino)-pyrimidin-4-yl]-3-ethoxy-thiophene-2-carboxylic acid] are 168 nM, 19 nM and 17 nM.
The corresponding values for `CCOc1cc(-c2cc(NCCc3c(C)oc4c(OC)ccc(F)c34)ncn2)sc1C(=O)O` [Example 34, 3-Ethoxy-5-{6-[2-(4-fluoro-7-methoxy-2-methyl-benzofuran-3-yl)-ethylamino]-pyrimidin-4-yl}-thiophene-2-carboxylic acid] are 12 nM, 6 nM and 6 nM.
On to `CCOc1cc(-c2cc(NCCc3c(C)oc4c(Cl)cccc34)ncn2)sc1C(=O)O` [Example 35, 5-{6-[2-(7-Chloro-2-methyl-benzofuran-3-yl)-ethylamino]-pyrimidin-4-yl}-3-ethoxy-thiophene-2-carboxylic acid], for which the IC50 came to 35 nM on PTGER4 (EP4), 3 nM on PTGER2 (EP2) and 2 nM at EP2 receptor.
Regarding `CCOc1cc(-c2cc(NCCc3c(C)sc4c(C)cccc34)ncn2)sc1C(=O)O` [Example 36, 5-{6-[2-(2,7-Dimethyl-benzo[b]thiophen-3-yl)-ethylamino]-pyrimidin-4-yl}-3-ethoxy-thiophene-2-carboxylic acid], the IC50 at PTGER4 (EP4) stood at 26 nM; at PTGER2 (EP2) it was 1 nM; on EP2 receptor, 4 nM.
The corresponding values for `CCOc1cc(-c2cc(NCCc3c(C)oc4c(C)cc(F)cc34)ncn2)sc1C(=O)O` [Example 37, 3-Ethoxy-5-{6-[2-(5-fluoro-2,7-dimethyl-benzofuran-3-yl)-ethylamino]-pyrimidin-4-yl}-thiophene-2-carboxylic acid] are 42 nM, 2 nM and 2 nM.
The corresponding values for `CCOc1cc(-c2cc(NCCc3c(C)oc4c(OC)cc(Cl)cc34)ncn2)sc1C(=O)O` [Example 38, 5-{6-[2-(5-Chloro-7-methoxy-2-methyl-benzofuran-3-yl)-ethylamino]-pyrimidin-4-yl}-3-ethoxy-thiophene-2-carboxylic acid] are 12 nM, 9 nM and 12 nM.
As to `CCOc1cc(-c2cc(NCCc3c(CC)oc4c(C)cc(F)cc34)ncn2)sc1C(=O)O` [Example 39, 3-Ethoxy-5-{6-[2-(2-ethyl-5-fluoro-7-methyl-benzofuran-3-yl)-ethylamino]-pyrimidin-4-yl}-thiophene-2-carboxylic acid], the IC50 was 50 nM on PTGER4 (EP4), 31 nM on PTGER2 (EP2) and 28 nM against EP2 receptor.
Consider `COc1cc(-c2cc(NCCc3c(C)sc4c(OC)ccc(Cl)c34)ncn2)ccc1C(=O)O` [Example 40, 4-{6-[2-(4-Chloro-7-methoxy-2-methyl-benzo[b]thiophen-3-yl)-ethylamino]-pyrimidin-4-yl}-2-methoxy-benzoic acid], for which the IC50 came out at 680 nM on PTGER4 (EP4), 48 nM on PTGER2 (EP2) and 94 nM on EP2 receptor.
The corresponding values for `CCSc1cc(-c2cc(NCCc3c(C)sc4c(C)cccc34)ncn2)ccc1C(=O)O` [Example 42, 4-{6-[2-(2,7-Dimethyl-benzo[b]thiophen-3-yl)-ethylamino]-pyrimidin-4-yl}-2-ethylsulfanyl-benzoic acid] are 328 nM, 4 nM and 14 nM.
